Measurements published in US4537777A, “A52688 Antibiotics and process for their production” (priority 1983, dated 1985).
Like-named read-outs stand apart in the source and are kept apart here.

Tests used:
[1] = system: Staphylococcus aureus; experiment: standard disc-plate assay; type: cell-based; details: read-out: Zone Diameters
[2] = system: Bacillus subtilis; experiment: standard disc-plate assay; type: cell-based; details: read-out: Zone Diameters
[3] = system: Micrococcus luteus; experiment: standard disc-plate assay; type: cell-based; details: read-out: Zone Diameters
[4] = system: Mycobacterium avium; experiment: standard disc-plate assay; type: cell-based; details: read-out: Zone Diameters
[5] = system: Saccharomyces pastorianus; experiment: standard disc-plate assay; type: cell-based; details: read-out: Zone Diameters
[6] = system: Neurospora crassa; experiment: standard disc-plate assay; type: cell-based; details: read-out: Zone Diameters
[7] = system: Candida albicans; experiment: standard disc-plate assay; type: cell-based; details: read-out: Zone Diameters
[8] = system: Trichophyton mentagroprophytes; experiment: standard disc-plate assay; type: cell-based; details: read-out: Zone Diameters
[9] = system: Proteus vulgaris; experiment: standard disc-plate assay; type: cell-based; details: read-out: Zone Diameters
[10] = system: Salmonella gallinarium; experiment: standard disc-plate assay; type: cell-based; details: read-out: Zone Diameters
[11] = system: Escherichia coli; experiment: standard disc-plate assay; type: cell-based
Procedure: In Table IX the standard discplate-assay activity of the A52688 factors is summarized. Activity is measured as the diameter (in mm) of the observed zone of inhibition; the diameter of the disc used in each case was 6.35 mm.

[12] = system: Pseudomonas aeruginosa; experiment: standard disc-plate assay; type: cell-based; details: read-out: Zone Diameters
[13] = system: Serratia marcescens; experiment: standard disc-plate assay; type: cell-based; details: read-out: Zone Diameters
[14] = system: Pseudomonas solanacearum; experiment: microbe, parasite or virus in culture; type: cell-based; details: Ralstonia solanacearum; conc 0.1 mg/ml; read-out: Zone Diameters
[15] = system: Bacillus stereothermophilus; experiment: standard disc-plate assay; type: cell-based; details: read-out: Zone Diameters
[16] = system: Adenocarcinoma 755; experiment: murine-transplanted tumor adenocarcinoma 755 in mice; type: in vivo; details: for Percent Tumor Inhibition / Toxic Deaths: daily for 10 days
Procedure: (§1) A52688 factors A, C, D, E, F, G, H, J and K and the specified acyl esters of factors A, C, D, E, G, H, J and K are especially useful as oncolytic agents.
Table X summarizes the results of experiments in which mice bearing the murine-transplanted tumor adenocarcinoma 755 were treated with compounds of this invention. In each test the compound was administered by the intraperitoneal route at specified dose levels. The compound was administered over a ten-day period, either on a daily basis or on days one, five and nine, as indicated.

[17] = acute toxicity in mice; details: mouse, in vivo, formulated in aqueous PVP
Description: ^a Compounds formulated in aqueous PVP
^b Route test compound administered

[18] = system: Lewis lung tumor; experiment: tumor growth test in mice; type: in vivo; details: tests in mice
Description: as §1

[19] = system: lymphosarcoma 6L3 HED; experiment: tumor growth test in mice; type: in vivo; details: tests in mice
Description: as §1

[20] = system: ovarian M-5 tumor; experiment: tumor growth test in mice; type: in vivo; details: tests in mice
Description: as §1

[21] = system: plasma cell myeloma X-5563; experiment: tumor growth test in mice; type: in vivo; details: tests in mice
Description: as §1

[22] = system: solid leukemia P1534J; experiment: tumor growth test in mice; type: in vivo; details: tests in mice
Description: as §1

[23] = moisture absorption; type: physicochemical
[24] = read-out: Zone Diameters, in minimal medium, conc 0.1 mg/ml, disc 6.35 mm

Structure (SMILES)	zone of inhibition at 100 µg/mL [1] [mm]	zone of inhibition at 100 µg/mL [2] [mm]	zone of inhibition at 100 µg/mL [3] [mm]	zone of inhibition at 100 µg/mL [4] [mm]	zone of inhibition at 100 µg/mL [5] [mm]	zone of inhibition at 100 µg/mL [6] [mm]	zone of inhibition at 100 µg/mL [7] [mm]	zone of inhibition at 100 µg/mL [8] [mm]	zone of inhibition at 100 µg/mL [9] [mm]	zone of inhibition at 100 µg/mL [10] [mm]	zone of inhibition at 100 µg/mL [11, 24] [mm]	zone of inhibition at 100 µg/mL [12] [mm]	zone of inhibition at 100 µg/mL [13] [mm]	zone of inhibition at 100 µg/mL [14] [mm]	zone of inhibition at 100 µg/mL [15] [mm]	further results
[C-]#[N+]C(=CC1=C[C@@H](O)[C@H](O)CC1)C(=CC1CCC(OC(=O)C=C(C)C)CC1)[N+]#[C-] (relative stereo) [Factor A]	26	30	36	14	20	39	33	45	24	21	20	23	20	26	35	zone of inhibition at 100 µg/mL ([11]; read-out: Zone Diameters, conc 0.1 mg/ml, disc 6.35 mm): 24 mm; Percent Tumor Inhibition ([16]; 0.25 mg/kg i.p.): 3%; Toxic Deaths ([16]; 0.25 mg/kg i.p., of 10 mice tested (9 for factor E)): 0; Percent Tumor Inhibition ([16]; 0.30 mg/kg i.p.): 55%; Toxic Deaths ([16]; 0.30 mg/kg i.p., of 10 mice tested): 1; Percent Tumor Inhibition ([16]; 0.35 mg/kg i.p.): 69%; Toxic Deaths ([16]; 0.35 mg/kg i.p., of 10 mice tested): 1; Percent Tumor Inhibition ([16]; 0.40 mg/kg i.p.): 91%; Toxic Deaths ([16]; 0.40 mg/kg i.p., of 9 mice tested): 6; growth of tumor ([16]; tests in mice): inhibited the growth; LD50 ([17]; ip, intraperitoneal, read-out: Intraperitoneal LD50): 3.12 mg/kg; LD50 ([17]; oral, read-out: Oral LD50): 8.84 mg/kg; growth of tumor [18]: inhibited the growth; growth of tumor [19]: inhibited the growth; growth of tumor [20]: inhibited the growth; growth of tumor [21]: inhibited the growth; growth of tumor [22]: inhibited the growth
[C-]#[N+]C(=CC1CCC(OC(=O)CC(C)C)CC1)C(=CC1(OC(C)=O)C=CC(O)CC1)[N+]#[C-] (stereo not drawn) [Factor K]	25	18	29	11	20	37	20	32	19	17	11	11	11	19	25	moisture absorption [23]: absorbs moisture readily
